Data set [1] can be described thus: Solid stability testing of the crystal form B (influencing factors: high temperature, high humidity, light; accelerated 40 °C/75% RH; long-term 25 °C/60% RH). It is filed as physicochemical. An excerpt:
Influencing factor testing: unless otherwise specified, each sample was placed in an open weighing bottle, which was placed in the corresponding storage container to investigate the stability at the time points of 5 and 10 days. The photostability testing complied with the requirements of ICH Q1B: the illuminated sample was exposed to visible light and ultraviolet light; storage conditions: the sample was illuminated at 5000±500 lux (visible light) and 90 μw/cm^2 (UV) for 5 days and 10 days. The total illumination received by the sample after 10 days was not less than 1.2×10^6 Lux·h, and the near-ultraviolet energy was not less than 200 w·h/m^2. The illuminated sample was placed in a clean weighing bottle, and spread out into a single layer without being covered by anything. The weighing bottle was uncovered and placed in an illumination box for illumination. The control sample was packaged in the same way as the illuminated sample, but the weighing bottle was covered with aluminum film. Long-term and accelerated testing: each sample was placed in a double-layer LDPE bag, respectively, and each layer of the LDPE bag was sealed with a buckle. Then, the sample was placed in an aluminum foil bag, which was heat-sealed. The sample was placed for 1, 2 and 3 months in the accelerated testing, and placed for 3 months under the long-term condition. XRPD analysis was performed on all the stability samples to test the changes in the crystal forms.
25 mg of a sample was taken, weighed accurately, and placed in a 10 mL volumetric flask. 6 mL of acetonitrile was added and the sample was dissolved by ultrasound. The mixture was cooled to room temperature, and water was added to the scale marker. The mixture was shaken well, and the sample was dissolved to give a solution with a concentration of approximately 2.5 mg/mL. The liquid phase was used for sample injection analysis. The test results were compared with the initial test results on day 0.

Data set [2] in a line: Hygroscopicity study by dynamic vapor sorption (DVS). In kind it is physicochemical. The following applies: 25 °C/80% RH. Here is the method: Instrument model: SMS DVS intrinsic plus dynamic vapor sorption instrument. Detailed DVS parameters are as follows: • Temperature: 25 °C; • Protective gas and flow rate: nitrogen, 200 mL/min; • dm/dt=0.002%/min; • RH (%) test gradient: 10% RH; • Minimum dm/dt balance time: 10 min; • Maximum balance time: 180 min; • Range of RH (%) test gradient: 0% to 95%.
The classification of hygroscopicity evaluation is as follows: • Absorbing enough water and forming a liquid: deliquescence; ΔW %≥15%: very hygroscopic; 15%>ΔW %≥2%: hygroscopic; 2%>ΔW %≥0.2%: slightly hygroscopic; ΔW %<0.2%: Not or almost not hygroscopic. ΔW % represents the weight increase of a test sample by moisture absorption at 25±1 °C and 80±2% RH.
The test was performed using SMS DVS intrinsic plus dynamic vapor sorption instrument.

The nature of data set [3]: Solid stability testing of the crystal form B (influencing factors: high temperature, high humidity, light; accelerated 40 °C/75% RH; long-term 25 °C/60% RH). In kind it is physicochemical. The source holds these as a separate data set.
Data set [4] is described as follows: Pharmacokinetic evaluation in male CD-1 mice (IV 0.5 mg/kg, PO 2 mg/kg), plasma LC/MS/MS. In kind it is in vivo. Here is the method: Assay purpose: The pharmacokinetic properties of the compounds of the present disclosure were studied in mice.
Each assay compound was mixed with DMAC respectively, and vortexed for 2 minutes. The solution of the assay compound in DMAC was mixed and vortexed for 2 minutes to prepare a clear solution of 10 mg/mL. 0.0600 mL of 10 mg/mL solution was added to 0.300 mL of Solutol, and the mixture was vortexed for 2 minutes. Then 2.400 mL of normal saline was added, and the mixture was vortexed for 2 minutes to obtain a clear solution of 0.2 mg/mL, which was used for administration in PO group. 0.500 mL of the solution for administration in PO group was vortexed for 2 minutes, and 0.0500 mL of DMAC was added. The mixture was vortexed for 2 minutes, and then 0.0500 mL of solutol was added. The mixture was vortexed for 2 minutes, and finally 0.400 mL of normal saline was added. The mixture was vortexed for two minutes to give a clear solution of 0.1 mg/mL, which was filtered through a microporous membrane to give a solution for administration in injection (IV) group.
Four male CD-1 mice were divided into two groups. The animals in the first group were administered intravenously once at a dose of 0.5 mg/kg, wherein the vehicle was 10% DMAC/10% Solutol/80% normal saline, and the administration volume was 5 mL/kg. The animals in the second group were administered orally 2 mg/kg of the assay compound by oral gavage, wherein the oral vehicle was 10% DMAC/10% Solutol/80% normal saline, and the oral volume was 10 mL/kg. Whole blood was collected at 0.033 (IV injection only), 0.083, 0.25, 0.5, 1, 2, 4 and 12 hours post-dose. The whole blood was centrifuged at 3200 g at 2-8 °C for 10 min to obtain plasma. The concentration of the assay compound in plasma was determined by LC/MS/MS method, and the pharmacokinetic parameters were calculated by Phoenix WinNonlin software.
The parameters have the following meanings: IV: intravenous injection; PO: oral administration; C0: initial plasma concentration; Cmax: maximum drug concentration in the systemic circulation; Tmax: time required to reach Cmax; T1/2: half-life; Vdss: apparent volume of distribution; Cl: clearance rate; AUC0-last: area under the plasma drug concentration-time curve.

Setting [5] is: High humidity (25 °C, 92.5% relative humidity, uncovered), 10 days.
The mark [6] stands for this setting: High temperature (60 °C, uncovered), 10 days.
Where [7] appears, read: Long term (25 °C, 60% relative humidity, uncovered), 3 months.
The mark [8] stands for this setting: Visible light + UV (ICH conditions), total illumination of visible light reaching 1200000 Lux·h, UV reaching 200 w·h/m^2.
[9] abbreviates: Accelerated (40 °C, 75% relative humidity, uncovered), 1 month.
Setting [10] is: Accelerated (40 °C, 75% relative humidity, uncovered), 2 months.
Setting [11] is: Accelerated (40 °C, 75% relative humidity, uncovered), 3 months.
[12] abbreviates: Light-shielding control group, placed with visible light + UV light, wrapped with tin foil.

This note sets out measurements from US20260347370A1, “SALT TYPE AND CRYSTAL FORM OF THIENOPYRIMIDINONE DERIVATIVE” (CMS RESEARCH & DEVELOPMENT PTE. LTD., priority 2022, published 2026).

Structures are written as SMILES.

For the compound `O=C(O)c1scc2[nH]c(=O)n(-c3cc4c(cc3F)OCCCOc3ccc(F)c(F)c3CO4)c(=O)c12`, the “Purity (HPLC)” value in data set [1] (0 day (initial)), in data set [1] (setting [5]), in data set [1] (setting [6]), in data set [1] (setting [7]), in data set [1] (setting [8]) and in data set [3] (setting [9]) was 99.4% in each case. The “Purity (HPLC)” value in data set [3] (setting [10]), in data set [3] (setting [11]) and in data set [3] (setting [12]) was 99.4% each time. The Crystal form result in data set [1] (setting [5]), in data set [1] (setting [6]), in data set [1] (setting [8]), in data set [3] (0 day (initial)), in data set [3] (setting [9]) and in data set [3] (setting [10]) was “form B” in each case. In addition, the Crystal form entry in data set [3] (setting [11]), in data set [3] (setting [12]) and in data set [3] (setting [7]) was “form B” in each case. Also, the “change of purity and crystalline form” value in data set [1] (all stability conditions (high temperature, high humidity, illumination, long-term and accelerated)) is listed as “did not change significantly”. Also, the hygroscopicity result in data set [2] is listed as “slightly hygroscopic (2%>ΔW %≥0.2%)”. For the same compound, in data set [2] (DVS), the ΔW % is listed as 0.535%. Also, in data set [3] (conclusion in words, all stability conditions), the chemical stability entry is listed as “good chemical stability”.

As usually defined, the Cmax is the highest concentration seen after dosing. One may read the Tmax as the time from dosing to the highest level. For the compound `O=C(O)c1scc2[nH]c(=O)n(-c3cc4c(cc3F)OCCCOc3ccc(F)c(F)c3CO4)c(=O)c12` [Compound of formula (I)], in data set [4] (IV (0.5 mg/kg)), the AUC0-last was found to be 48.307 µM·h, the “Cl (clearance rate)” value is given as 0.332 mL/min/kg, the T1/2 was determined as 5.66 h and the “Vdss (apparent volume of distribution)” value came to 0.159 L/kg. Besides, in data set [4] (IV (0.5 mg/kg), read-out: C0 (initial plasma concentration)), the C0 is 13.5 µM. Besides, in data set [4] (PO (2 mg/kg)), the AUC0-last was determined as 142.824 µM·h, the Bioavailability is 95.3%, the Cmax was found to be 25.8 µM and the T1/2 came to 5.03 h. In data set [4] (PO (2 mg/kg)), the Tmax amounted to 0.500 h.
